Patent publication US20230114728A1 (Venatorx Pharmaceuticals, Inc., priority 2019, published 2023)
Values after ≈ are worked out from the molar mass of the structure shown. Read-outs that look alike come from different tables or passages of the source.

Tests used:
Experiment in all cases: Broth microdilution MIC in CAMHB
Format in all cases: cell-based
[1] = tested on: K. pneumoniae UMM producing SHV-5 and KPC-2; conditions: Klebsiella pneumoniae, read-out: Minimum Inhibitory Concentration, K. pneumoniae UMM
Outline: (§1)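 Standard CLSI-style microdilution in cation-adjusted Mueller Hinton broth, 2-fold dilution series, incubated 16-20 h at 37° C; endpoint was visual absence of growth.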

[2] = tested on: E. coli ATCC 25922; conditions: Escherichia coli
Outline: as §1

[3] = tested on: E. coli AG100A; conditions: Escherichia coli, read-out: Minimum Inhibitory Concentration, E. coli AG100A
Outline: as §1

[4] = tested on: A. baumannii ATCC 19606; conditions: Acinetobacter baumannii
Outline: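 CLSI broth microdilution in CAMHB: 2-fold compound dilutions inoculated at 2-8×10^5 CFU/mL from 3-5 h log-phase cultures. Incubated at 37 °C for 16-20 h (Enterobacteriaceae, Pseudomonas); MIC read visually as lowest concentration without growth. Strains include hyper-permeable and efflux-deficient mutants.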

[5] = tested on: E. coli 901C; conditions: Escherichia coli, read-out: Minimum Inhibitory Concentration, E. coli 901C
Outline: as §1

[6] = tested on: P. aeruginosa ATCC 27853; conditions: Pseudomonas aeruginosa
Outline: as §1

[7] = tested on: K. pneumoniae 848844 producing SHV-11 and KPC-2; conditions: Klebsiella pneumoniae, read-out: Minimum Inhibitory Concentration, K. pneumoniae 848844
Outline: as §1

[8] = tested on: E. coli AG100; conditions: Escherichia coli
Outline: as §1

[9] = tested on: P. aeruginosa ATCC 35151; conditions: Pseudomonas aeruginosa
Outline: as §1

[10] = tested on: E. coli D22; conditions: Escherichia coli
Outline: as §1

[11] = tested on: P. aeruginosa (ΔmexAB-oprM); conditions: Pseudomonas aeruginosa, read-out: Minimum Inhibitory Concentration, P. aeruginosa ΔmexAB-OprM
Outline: as §1

[12] = tested on: K. pneumoniae SI-117 producing VIM-1; conditions: Klebsiella pneumoniae, read-out: Minimum Inhibitory Concentration, K. pneumoniae SI-117
Outline: as §1

[13] = ATCC25922, E. coli ATCC 25922, MHB, read-out: Minimum Inhibitory Concentration, E. coli 25922
[14] = ATCC19606, MHB, read-out: Minimum Inhibitory Concentration, A. baumannii ATCC 19606
[15] = E. coli 901C (hyper-permeable), MHB
[16] = ATCC27853, MHB, read-out: Minimum Inhibitory Concentration, P. aeruginosa ATCC 27853
[17] = E. coli AG100 (wild-type parent), MHB, read-out: Minimum Inhibitory Concentration, E. coli AG100
[18] = ATCC35151, MHB, hyper-permeable strain, read-out: Minimum Inhibitory Concentration, P. aeruginosa ATCC 35151
[19] = E. coli D22 (hyper-permeable), MHB, read-out: Minimum Inhibitory Concentration, E. coli D22

SMILES: NCCN1CCN(C(=O)NC(C(=O)N[C@H]2Cc3ccc(F)c(C(=O)O)c3OB2O)c2nc(N)sc2F)C(=O)C1=O (stereo partly drawn) [Example 24, (3R)-3-(2-(2-amino-5-fluorothiazol-4-yl)-2-(4-(2-aminoethyl)-2,3-dioxopiperazine-1-carboxamido)acetamido)-7-fluoro-2-hydroxy-3,4-dihydro-2H-benzo[e][1,2]oxaborinine-8-carboxylic acid]
- MIC [1]: 32 to 64 µg/mL (≈ 55 to 110 µM)
- MIC [2, 13]: 32 to 64 µg/mL (≈ 55 to 110 µM)
- MIC [3]: 8 to 16 µg/mL (≈ 13.8 to 27.5 µM)
- MIC [4, 14]: > 128 µg/mL
- MIC [5, 15]: 2 to 4 µg/mL (≈ 3.44 to 6.88 µM)
- MIC [6, 16]: > 128 µg/mL
- MIC [7]: > 128 µg/mL
- MIC [8, 17]: 32 to 64 µg/mL (≈ 55 to 110 µM)
- MIC [9, 18]: 2 to 4 µg/mL (≈ 3.44 to 6.88 µM)
- MIC [10, 19]: 8 to 16 µg/mL (≈ 13.8 to 27.5 µM)
- MIC [11]: 32 to 64 µg/mL (≈ 55 to 110 µM)
- MIC [12]: 32 to 64 µg/mL (≈ 55 to 110 µM)

SMILES: CCN1CCN(C(=O)NC(C(=O)N[C@H]2Cc3cccc(C(=O)O)c3OB2O)c2ccc(O)c(N)c2)C(=O)C1=O (stereo partly drawn) [Example 29, (3R)-3-(2-(3-amino-4-hydroxyphenyl)-2-(4-ethyl-2,3-dioxopiperazine-1-carboxamido)acetamido)-2-hydroxy-3,4-dihydro-2H-benzo[e][1,2]oxaborinine-8-carboxylic acid]
- MIC [1]: 32 to 64 µg/mL (≈ 59.3 to 119 µM)
- MIC [2, 13]: 32 to 64 µg/mL (≈ 59.3 to 119 µM)
- MIC [3]: 2 to 4 µg/mL (≈ 3.71 to 7.42 µM)
- MIC [4, 14]: > 128 µg/mL
- MIC [5, 15]: 0.5 to 1 µg/mL (≈ 0.927 to 1.85 µM)
- MIC [6, 16]: > 128 µg/mL
- MIC [7]: > 128 µg/mL
- MIC [8, 17]: 32 to 64 µg/mL (≈ 59.3 to 119 µM)
- MIC [9, 18]: 0.5 to 1 µg/mL (≈ 0.927 to 1.85 µM)
- MIC [10, 19]: 2 to 4 µg/mL (≈ 3.71 to 7.42 µM)
- MIC [11]: 8 to 16 µg/mL (≈ 14.8 to 29.7 µM)
- MIC [12]: 32 to 64 µg/mL (≈ 59.3 to 119 µM)

SMILES: CCN1CCN(C(=O)NC(C(=O)N[C@H]2Cc3cccc(C(=O)O)c3OB2O)c2ccc(O)c(NS(N)(=O)=O)c2)C(=O)C1=O (stereo partly drawn) [Example 30, (3R)-3-(2-(4-ethyl-2,3-dioxopiperazine-1-carboxamido)-2-(4-hydroxy-3-(sulfamoylamino)phenyl)acetamido)-2-hydroxy-3,4-dihydro-2H-benzo[e][1,2]oxaborinine-8-carboxylic acid]
- MIC [1]: 32 to 64 µg/mL (≈ 51.7 to 103 µM)
- MIC [2, 13]: 8 to 16 µg/mL (≈ 12.9 to 25.9 µM)
- MIC [3]: 2 to 4 µg/mL (≈ 3.23 to 6.47 µM)
- MIC [4, 14]: > 128 µg/mL
- MIC [5, 15]: 0.5 to 1 µg/mL (≈ 0.809 to 1.62 µM)
- MIC [6, 16]: > 128 µg/mL
- MIC [7]: > 128 µg/mL
- MIC [8, 17]: 32 to 64 µg/mL (≈ 51.7 to 103 µM)
- MIC [9, 18]: 0.5 to 1 µg/mL (≈ 0.809 to 1.62 µM)
- MIC [10, 19]: 2 to 4 µg/mL (≈ 3.23 to 6.47 µM)
- MIC [11]: 8 to 16 µg/mL (≈ 12.9 to 25.9 µM)
- MIC [12]: 32 to 64 µg/mL (≈ 51.7 to 103 µM)

SMILES: CCN1CCN(C(=O)NC(C(=O)N[C@H]2Cc3cccc(C(=O)O)c3OB2O)c2ccc(C(=O)O)c(F)c2)C(=O)C1=O (stereo partly drawn) [Example 31, (3R)-3-(2-(4-carboxy-3-fluorophenyl)-2-(4-ethyl-2,3-dioxopiperazine-1-carboxamido)acetamido)-2-hydroxy-3,4-dihydro-2H-benzo[e][1,2]oxaborinine-8-carboxylic acid]
- MIC [1]: 32 to 64 µg/mL (≈ 56.1 to 112 µM)
- MIC [2, 13]: 32 to 64 µg/mL (≈ 56.1 to 112 µM)
- MIC [3]: 2 to 4 µg/mL (≈ 3.51 to 7.01 µM)
- MIC [4, 14]: > 128 µg/mL
- MIC [5, 15]: < 0.25 µg/mL
- MIC [6, 16]: 32 to 64 µg/mL (≈ 56.1 to 112 µM)
- MIC [7]: > 128 µg/mL
- MIC [8, 17]: 32 to 64 µg/mL (≈ 56.1 to 112 µM)
- MIC [9, 18]: < 0.25 µg/mL
- MIC [10, 19]: 2 to 4 µg/mL (≈ 3.51 to 7.01 µM)
- MIC [11]: 8 to 16 µg/mL (≈ 14 to 28.1 µM)
- MIC [12]: > 128 µg/mL

SMILES: N[C@@H](C(=O)N[C@H]1Cc2ccc(F)c(C(=O)O)c2OB1O)c1ccc(OS(=O)(=O)F)cc1 [Example 32, (R)-3-((R)-2-amino-2-(4-((fluorosulfonyl)oxy)phenyl)acetamido)-7-fluoro-2-hydroxy-3,4-dihydro-2H-benzo[e][1,2]oxaborinine-8-carboxylic acid]
- MIC [1]: > 128 µg/mL
- MIC ([2]; ATCC25922, read-out: Minimum Inhibitory Concentration, E. coli 25922): > 128 µg/mL
- MIC [3]: > 128 µg/mL
- MIC ([4]; ATCC19606, read-out: Minimum Inhibitory Concentration, A. baumannii ATCC 19606): > 128 µg/mL
- MIC ([5]; 901C): > 128 µg/mL
- MIC ([6]; ATCC27853, read-out: Minimum Inhibitory Concentration, P. aeruginosa ATCC 27853): > 128 µg/mL
- MIC [7]: > 128 µg/mL
- MIC ([8]; AG100, read-out: Minimum Inhibitory Concentration, E. coli AG100): > 128 µg/mL
- MIC ([9]; ATCC35151, read-out: Minimum Inhibitory Concentration, P. aeruginosa ATCC 35151): > 128 µg/mL
- MIC ([10]; D22, read-out: Minimum Inhibitory Concentration, E. coli D22): > 128 µg/mL
- MIC [11]: > 128 µg/mL
- MIC [12]: > 128 µg/mL

SMILES: NCCCN1CCN(C(=O)NC(C(=O)N[C@H]2Cc3cccc(C(=O)O)c3OB2O)c2ccc(C(=O)O)cc2)C(=O)C1=O (stereo partly drawn) [Example 39, (3R)-3-(2-(4-(3-aminopropyl)-2,3-dioxopiperazine-1-carboxamido)-2-(4-carboxyphenyl)acetamido)-2-hydroxy-3,4-dihydro-2H-benzo[e][1,2]oxaborinine-8-carboxylic acid]
- MIC [1]: 32 to 64 µg/mL (≈ 55 to 110 µM)
- MIC [2, 13]: 8 to 16 µg/mL (≈ 13.8 to 27.5 µM)
- MIC [3]: 8 to 16 µg/mL (≈ 13.8 to 27.5 µM)
- MIC [4, 14]: > 128 µg/mL
- MIC [5, 15]: 0.5 to 1 µg/mL (≈ 0.86 to 1.72 µM)
- MIC [6, 16]: 8 to 16 µg/mL (≈ 13.8 to 27.5 µM)
- MIC [7]: > 128 µg/mL
- MIC [8, 17]: 8 to 16 µg/mL (≈ 13.8 to 27.5 µM)
- MIC [9, 18]: < 0.25 µg/mL
- MIC [10, 19]: 2 to 4 µg/mL (≈ 3.44 to 6.88 µM)
- MIC [11]: 8 to 16 µg/mL (≈ 13.8 to 27.5 µM)
- MIC [12]: > 128 µg/mL
